Reference: the NIST ThermoML archive (doi:10.1016/j.jct.2019.03.023)

Test: molar heat capacity at constant volume
Conditions: Fluid (supercritical or subcritical phases), Vacuum adiabatic calorimetry

CC(C)O [propan-2-ol]
Conditions	molar heat capacity at constant volume [J/K/mol]
509.12 K, Mass density=288.99 kg/m3	208.89
509.12 K, Mass density=293.3 kg/m3	205.89
509.12 K, Mass density=324.5 kg/m3	193.27
509.13 K, Mass density=255.8 kg/m3	235.45
509.21 K, Mass density=234.3 kg/m3	205.65
509.21 K, Mass density=266.3 kg/m3	238.7
509.21 K, Mass density=274 kg/m3	233.71
509.21 K, Mass density=281.9 kg/m3	212.8
509.22 K, Mass density=293.3 kg/m3	199.52
509.31 K, Mass density=234.3 kg/m3	202.04
509.31 K, Mass density=255.8 kg/m3	218.33
509.31 K, Mass density=266.3 kg/m3	229.68
509.31 K, Mass density=274 kg/m3	224.45
509.31 K, Mass density=281.9 kg/m3	208.17
509.31 K, Mass density=293.3 kg/m3	198.91
509.35 K, Mass density=329.2 kg/m3	179.56
509.4 K, Mass density=234.3 kg/m3	198.61
509.4 K, Mass density=255.8 kg/m3	215.14
509.4 K, Mass density=274 kg/m3	219.83
509.41 K, Mass density=281.9 kg/m3	208.71
509.41 K, Mass density=293.3 kg/m3	198.91
509.45 K, Mass density=329.2 kg/m3	180.16
509.49 K, Mass density=234.3 kg/m3	198.97
509.49 K, Mass density=255.8 kg/m3	213.4
509.49 K, Mass density=266.3 kg/m3	223.31
509.49 K, Mass density=274 kg/m3	219.83
509.49 K, Mass density=281.9 kg/m3	204.98
509.55 K, Mass density=329.2 kg/m3	178.84
509.59 K, Mass density=234.3 kg/m3	196.21
509.59 K, Mass density=255.8 kg/m3	210.09
509.59 K, Mass density=266.3 kg/m3	219.59
509.59 K, Mass density=274 kg/m3	215.2
509.59 K, Mass density=324.5 kg/m3	183.83
509.64 K, Mass density=329.2 kg/m3	179.98
509.68 K, Mass density=234.3 kg/m3	196.87
509.68 K, Mass density=255.8 kg/m3	209.01
509.68 K, Mass density=266.3 kg/m3	217
509.68 K, Mass density=274 kg/m3	213.04
509.68 K, Mass density=324.5 kg/m3	191.16
509.77 K, Mass density=234.3 kg/m3	196.09
509.77 K, Mass density=255.8 kg/m3	206.37
509.77 K, Mass density=266.3 kg/m3	209.67
509.77 K, Mass density=274 kg/m3	213.04
509.77 K, Mass density=324.5 kg/m3	189.06
509.79 K, Mass density=329.2 kg/m3	177.46
509.86 K, Mass density=234.3 kg/m3	195.79
509.86 K, Mass density=255.8 kg/m3	204.2
509.86 K, Mass density=266.3 kg/m3	209.67
509.86 K, Mass density=274 kg/m3	208.41
509.86 K, Mass density=293.3 kg/m3	194.17
509.87 K, Mass density=324.5 kg/m3	183.23
509.96 K, Mass density=255.8 kg/m3	202.1
509.96 K, Mass density=266.3 kg/m3	209.67
509.96 K, Mass density=274 kg/m3	204.8
509.96 K, Mass density=281.9 kg/m3	202.4
509.96 K, Mass density=293.3 kg/m3	192.18
509.96 K, Mass density=324.5 kg/m3	187.5
509.99 K, Mass density=329.2 kg/m3	177.28
510.05 K, Mass density=255.8 kg/m3	200
510.05 K, Mass density=266.3 kg/m3	209.73
510.05 K, Mass density=274 kg/m3	203.84
510.05 K, Mass density=281.9 kg/m3	206.97
510.05 K, Mass density=293.3 kg/m3	195.37
510.05 K, Mass density=324.5 kg/m3	181.31
510.05 K, Mass density=343.1 kg/m3	174.7
510.14 K, Mass density=255.8 kg/m3	198.91
510.14 K, Mass density=266.3 kg/m3	211.53
510.14 K, Mass density=274 kg/m3	203.36
510.14 K, Mass density=281.9 kg/m3	197.95
510.14 K, Mass density=293.3 kg/m3	191.4
510.14 K, Mass density=324.5 kg/m3	187.92
510.14 K, Mass density=329.2 kg/m3	178.12
510.14 K, Mass density=343.1 kg/m3	178.42
510.23 K, Mass density=329.2 kg/m3	177.94
510.24 K, Mass density=274 kg/m3	204.02
510.24 K, Mass density=281.9 kg/m3	197.95
510.24 K, Mass density=293.3 kg/m3	198.43
510.24 K, Mass density=324.5 kg/m3	181.85
510.24 K, Mass density=343.1 kg/m3	185.87
510.33 K, Mass density=274 kg/m3	202.52
510.33 K, Mass density=281.9 kg/m3	193.45
510.33 K, Mass density=293.3 kg/m3	191.1
510.33 K, Mass density=324.5 kg/m3	181.73
510.33 K, Mass density=329.2 kg/m3	176.68
510.33 K, Mass density=343.1 kg/m3	182.15
510.42 K, Mass density=274 kg/m3	204.68
510.42 K, Mass density=281.9 kg/m3	198.01
510.42 K, Mass density=293.3 kg/m3	187.02
510.42 K, Mass density=324.5 kg/m3	183.05
510.42 K, Mass density=343.1 kg/m3	178.48
510.48 K, Mass density=329.2 kg/m3	178.6
510.51 K, Mass density=281.9 kg/m3	193.69
510.52 K, Mass density=293.3 kg/m3	192.91
510.52 K, Mass density=343.1 kg/m3	174.76
510.61 K, Mass density=281.9 kg/m3	198.13
510.61 K, Mass density=293.3 kg/m3	186.78
510.61 K, Mass density=343.1 kg/m3	182.21
510.7 K, Mass density=281.9 kg/m3	193.39
510.7 K, Mass density=343.1 kg/m3	185.93
510.79 K, Mass density=281.9 kg/m3	196.69
510.79 K, Mass density=343.1 kg/m3	177.04
510.89 K, Mass density=281.9 kg/m3	193.39
510.98 K, Mass density=281.9 kg/m3	188.88
511.07 K, Mass density=281.9 kg/m3	188.94
511.16 K, Mass density=281.9 kg/m3	193.51
511.26 K, Mass density=281.9 kg/m3	188.94
511.35 K, Mass density=281.9 kg/m3	192.78
511.44 K, Mass density=281.9 kg/m3	189
511.53 K, Mass density=281.9 kg/m3	191.7
515.15 K, Mass density=293.3 kg/m3	182.39
515.24 K, Mass density=293.3 kg/m3	178.06
515.33 K, Mass density=293.3 kg/m3	182.39
515.42 K, Mass density=293.3 kg/m3	173.67
515.51 K, Mass density=293.3 kg/m3	178.06
515.61 K, Mass density=293.3 kg/m3	173.73
515.7 K, Mass density=293.3 kg/m3	178.12
515.79 K, Mass density=293.3 kg/m3	185.39
515.88 K, Mass density=293.3 kg/m3	178.12
515.98 K, Mass density=234.3 kg/m3	168.75
515.98 K, Mass density=293.3 kg/m3	174.52
516.07 K, Mass density=234.3 kg/m3	174.22
516.16 K, Mass density=234.3 kg/m3	168.75
516.25 K, Mass density=234.3 kg/m3	163.28
516.34 K, Mass density=234.3 kg/m3	174.28
516.44 K, Mass density=234.3 kg/m3	163.88
516.53 K, Mass density=234.3 kg/m3	168.81
516.62 K, Mass density=234.3 kg/m3	168.87
516.71 K, Mass density=234.3 kg/m3	163.4
516.71 K, Mass density=281.9 kg/m3	181.31
516.81 K, Mass density=234.3 kg/m3	168.87
516.81 K, Mass density=281.9 kg/m3	181.31
516.9 K, Mass density=234.3 kg/m3	168.87
516.9 K, Mass density=281.9 kg/m3	176.74
516.99 K, Mass density=281.9 kg/m3	176.8
517.08 K, Mass density=281.9 kg/m3	185.87
517.18 K, Mass density=281.9 kg/m3	176.8
517.27 K, Mass density=281.9 kg/m3	181.19
517.54 K, Mass density=274 kg/m3	189.48
517.64 K, Mass density=274 kg/m3	184.79
517.73 K, Mass density=274 kg/m3	180.04
517.82 K, Mass density=274 kg/m3	183.77
517.91 K, Mass density=274 kg/m3	180.1
518 K, Mass density=274 kg/m3	187.14
518.07 K, Mass density=274 kg/m3	180.1
518.1 K, Mass density=274 kg/m3	183.35
518.28 K, Mass density=274 kg/m3	181.73
518.37 K, Mass density=274 kg/m3	182.81
518.47 K, Mass density=255.8 kg/m3	166.04
518.56 K, Mass density=255.8 kg/m3	167.12
518.65 K, Mass density=255.8 kg/m3	169.05
518.74 K, Mass density=255.8 kg/m3	166.34
518.83 K, Mass density=255.8 kg/m3	165.14
518.93 K, Mass density=255.8 kg/m3	167.97
519.02 K, Mass density=255.8 kg/m3	165.14
519.11 K, Mass density=255.8 kg/m3	170.19
519.2 K, Mass density=255.8 kg/m3	165.2
519.29 K, Mass density=255.8 kg/m3	166.64
519.39 K, Mass density=255.8 kg/m3	168.99
521.23 K, Mass density=293.3 kg/m3	170.43
521.32 K, Mass density=293.3 kg/m3	170.43
521.41 K, Mass density=293.3 kg/m3	170.43
521.5 K, Mass density=293.3 kg/m3	161.66
521.59 K, Mass density=293.3 kg/m3	174.88
521.68 K, Mass density=293.3 kg/m3	170.49
521.78 K, Mass density=293.3 kg/m3	166.34
521.87 K, Mass density=281.9 kg/m3	173.13
521.87 K, Mass density=293.3 kg/m3	169.71
521.96 K, Mass density=281.9 kg/m3	168.57
522.05 K, Mass density=281.9 kg/m3	173.19
522.14 K, Mass density=281.9 kg/m3	173.19
522.23 K, Mass density=281.9 kg/m3	173.19
522.33 K, Mass density=281.9 kg/m3	168.63
522.42 K, Mass density=281.9 kg/m3	171.63
522.51 K, Mass density=281.9 kg/m3	173.25
522.6 K, Mass density=281.9 kg/m3	168.69
524.07 K, Mass density=274 kg/m3	171.75
524.16 K, Mass density=274 kg/m3	171.75
524.25 K, Mass density=274 kg/m3	176.5
524.34 K, Mass density=274 kg/m3	176.5
524.43 K, Mass density=274 kg/m3	176.56
524.53 K, Mass density=274 kg/m3	171.81
524.62 K, Mass density=274 kg/m3	176.56
524.71 K, Mass density=274 kg/m3	167.12
524.8 K, Mass density=274 kg/m3	171.87
